Measurements from PubChem BioAssay (NCI).
Values joined by “and” are separate entries in the source; they are usually repeats but may differ in a detail not shown here. Identical values can stand only once.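 Dose response: 5 concentrations. Exposure: 48 h. Format: 96-well plates. Endpoint: linear interpolation; highest concentration if not reached. GI50: concentration for 50% inhibition of growth. Definition used: TGI = concentration required for complete inhibition of growth.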

What was measured:
Assay in all cases: DTP human tumour cell line panel, 48 h
[1] = test system: DMS 114 small cell lung
[2] = test system: DMS 273 small cell lung
[3] = test system: LXFL 529 NSCLC
[4] = test system: HOP-18 NSCLC
[5] = test system: DLD-1 colon
[6] = test system: MDA-MB-435
[7] = test system: BT-549 breast
[8] = test system: MCF7 breast
[9] = test system: PC-3 prostate
[10] = test system: MDA-MB-231 breast

| SMILES | TGI [1] [µM] | TGI [2] [µM] | TGI [3] [µM] | TGI [4] [µM] | TGI [5] [µM] | TGI [6] [µM] | TGI [7] [µM] | TGI [8] | TGI [9] | TGI [10] [µM] | GI50 [6] [µM] | GI50 [7] [µM] | GI50 [8] [µM] | GI50 [9] [µM] | GI50 [10] [µM] |
| --- | --- | --- | --- | --- | --- | --- | --- | --- | --- | --- | --- | --- | --- | --- | --- |
| Clc1cc(Cl)cc(C2SCc3nc4ccccc4n32)c1 (centres undefined) | 44.7 | 22.4 | 36.3 | 67.8 |  |  |  |  |  |  |  |  |  |  |  |
| O=C1C2c3[nH]c4ccccc4c3C3CCC(c4ccccc4)CC3C2C(=O)N1c1ccccc1 (centres undefined) | > 100 | > 100 | > 100 | > 100 | > 100 |  |  |  |  |  |  |  |  |  |  |
| CCCCCCCCCCCCCCCCSS(C)(=O)=O |  | 42.7 | 26.3 | > 100 | 37.7 | > 100 | > 100 | > 100 µM | > 100 µM | > 100 |  |  |  |  |  |
| N#CC1=C(c2ccccc2)NN(Cc2ccccc2)C(c2ccc(Cl)cc2)CC1=O (centres undefined) | > 100 | 52.8 | > 100 | 73.5 | 49.1 |  |  |  |  |  |  |  |  |  |  |
| C=CCNC(=O)ON1C(=O)CCC1=O | > 100 | > 100 | > 100 | > 100 | > 100 |  |  |  |  |  |  |  |  |  |  |
| CN(C(=N)c1ccccc1)c1ccccc1 |  | > 100 | > 100 | > 100 | > 100 |  |  |  |  |  |  |  |  |  |  |
| CCOC(=O)NC(=O)c1cn(CC(=O)NCC(=O)NCC(=O)N2CCN(CCn3c(C)nc(C(N)=O)c3N)CC2)c(=O)[nH]c1=O | > 100 |  | > 100 | > 100 | > 100 |  |  |  |  |  |  |  |  |  |  |
| NC(N)=NS(=O)(=O)c1ccc(NC(=O)c2cccn3c(=O)c4ccccc4nc23)cc1 | > 100 | > 100 | > 100 | > 100 | > 100 |  |  |  |  |  |  |  |  |  |  |
| Clc1cc2nc[nH]c2cc1Cl | > 100 | > 100 | > 100 | > 100 | > 100 |  |  |  |  |  |  |  |  |  |  |
| Cc1cc(Cl)ccc1NC(=O)C1C(=O)C(=O)N(c2ccc(Cl)cc2C)C1=O (centres undefined) | 68.1 | > 100 | > 100 |  | > 100 |  |  |  |  |  |  |  |  |  |  |
| CCOc1cccc2sc(N)nc12 | > 100 | > 100 | > 100 | > 100 | > 100 |  |  |  |  |  |  |  |  |  |  |
| COC(=O)c1ccc(CS(=O)(=O)c2ccccc2)cc1 | > 100 | > 100 | > 100 | > 100 | > 100 |  |  |  |  |  |  |  |  |  |  |
| COc1cccc(-c2cc(=O)c3cc(C)c(C)c(C(=O)O)c3o2)c1 | > 100 | > 100 | > 100 |  | > 100 |  |  |  |  |  |  |  |  |  |  |
| CC(C)COC(=O)N1N=NC2C3CC(=O)C(O3)C21 (centres undefined) | > 100 | > 100 | > 100 | > 100 | > 100 |  |  |  |  |  |  |  |  |  |  |
| CC(=O)O[C@H]1CC[C@@]2(C)C(=CC[C@@H]3C2CC[C@]2(C)C(=O)NC(=O)CC32)C1 (some centres undefined) | > 100 | > 100 | > 100 | > 100 | > 100 |  |  |  |  |  |  |  |  |  |  |
| CS(=O)(=O)OCCCCOS(C)(=O)=O | 250 | 245 | > 250 | > 200 | > 236 | > 1000 | > 1000 | 250 µM and > 1000 µM | 250 µM and > 1000 µM | > 1000 | > 250 | > 250 | 534 | > 1000 | > 250 |
